Source: patent publication US20260158009A1 (GENZYME CORPORATION, priority 2023, published 2026)
pIC50: −log10 of the molar value.

What was measured:
[1] = biological target: T1, hRIPK1 (aa 1-375) fusion protein (Homo sapiens, UniProt Q13546); assay: ADP-Glo kinase assay: catalytic activity of RIPK1 (autophosphorylation, conversion of ATP to ADP); type: biochemical
T1 construct: hRIPK1 (aa 1-375) fusion protein
T1 sequence (Q13546 1-375): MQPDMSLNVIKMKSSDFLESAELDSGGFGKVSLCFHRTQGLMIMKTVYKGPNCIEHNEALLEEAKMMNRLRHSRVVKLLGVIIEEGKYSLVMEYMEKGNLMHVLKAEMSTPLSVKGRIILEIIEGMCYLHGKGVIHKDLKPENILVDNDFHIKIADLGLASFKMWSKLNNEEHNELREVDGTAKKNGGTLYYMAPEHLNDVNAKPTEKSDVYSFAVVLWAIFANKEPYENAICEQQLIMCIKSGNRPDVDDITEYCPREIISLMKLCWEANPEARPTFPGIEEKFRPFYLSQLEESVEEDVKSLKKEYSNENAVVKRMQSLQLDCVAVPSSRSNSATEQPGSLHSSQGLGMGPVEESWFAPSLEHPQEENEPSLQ
In short: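 The readout was ADP-Glo luminescence after a 240 min rt autophosphorylation reaction with 50 μM ATP, following 30 min preincubation of 3.6 μg/ml hRIPK1 (aa 1-375) fusion with compound at 33300-1.69 nM final in 1% DMSO. Values came from Levenberg-Marquardt nonlinear fits.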

U937 cells = assay: Cellular assay in U937 cells: activity of RIPK1 inhibitors on TNFα/zVAD.fmk-induced cell death (necroptosis), CellTiter 96 AQueous (MTS) readout; type: cell-based; conditions: Homo sapiens, U-937
In short: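 Necroptosis was measured by viable-cell MTS reduction (4 h, absorbance 490 nm) after overnight (18–24 h) 37° C culture. Cell suspensions of U937 cells carried TNFα (100 ng/ml) plus zVAD.fmk (50 μM) before compound was added. A 10-point curve (10 μM–0.26 nM or 1 μM–0.07 nM) was run in duplicate, normalised to the control lacking TNFα/zVAD.fmk.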

Compound	pIC50 [1]	pIC50 (U937 cells)
N#Cc1cc(F)cc([C@@H]2CCON2C(=O)[C@H]2CC[C@H](Cc3ccc4ncnn4c3)CC2)c1 [compound 142, trans-3-fluoro-5-[(3S)-2-[4-([1,2,4]triazolo[1,5-a]pyridin-6-ylmethyl)cyclohexanecarbonyl]isoxazolidin-3-yl]benzonitrile]	7.42	8.40
O=C([C@H]1CC[C@H](Cc2ccc3ncnn3c2)CC1)N1OCC[C@H]1c1cnccn1 [compound 143, trans-[(3S)-3-pyrazin-2-ylisoxazolidin-2-yl]-[4-([1,2,4]triazolo[1,5-a]pyridin-6-ylmethyl)cyclohexyl]methanone]	7.12	7.36
N#Cc1cc(F)cc([C@@H]2CCON2C(=O)[C@H]2CC[C@H](Cc3ccc4c(c3)C(=O)NC4)CC2)c1 [compound 144, trans-3-fluoro-5-[(3S)-2-[4-[(3-oxoisoindolin-5-yl)methyl]cyclohexanecarbonyl]isoxazolidin-3-yl]benzonitrile]	7.66	8.52
O=C1NCc2ccc(C[C@H]3CC[C@H](C(=O)N4OCC[C@H]4c4cnccn4)CC3)cc21 [compound 145, trans-6-[[4-[(3S)-3-pyrazin-2-ylisoxazolidine-2-carbonyl]cyclohexyl]methyl]isoindolin-1-one]	7.54	7.80
N#Cc1cc(F)cc([C@@H]2CCON2C(=O)[C@H]2CC[C@H](Cn3ccc4ncc(OC5COC5)cc43)CC2)c1 [compound 146, trans-3-fluoro-5-[(3S)-2-[4-[[6-(oxetan-3-yloxy)pyrrolo[3,2-b]pyridin-1-yl]methyl]cyclohexanecarbonyl]isoxazolidin-3-yl]benzonitrile]	7.55	7.59
O=C([C@H]1CC[C@H](Cc2cncc(F)c2)CC1)N1OCC[C@H]1c1cnccn1 [compound 147, trans-[4-[(5-fluoro-3-pyridyl)methyl]cyclohexyl]-[(3S)-3-pyrazin-2-ylisoxazolidin-2-yl]methanone]	7.57	7.40
N#Cc1cc(F)cc([C@@H]2CCON2C(=O)[C@H]2CC[C@H](Cc3cncc(F)c3)CC2)c1 [compound 148, trans-3-fluoro-5-[(3S)-2-[4-[(5-fluoro-3-pyridyl)methyl]cyclohexanecarbonyl]isoxazolidin-3-yl]benzonitrile]	7.74	8.40
COCCOc1cnc2ccn(C[C@H]3CC[C@H](C(=O)N4OCC[C@H]4c4cc(F)cc(C#N)c4)CC3)c2c1 [compound 149, trans-3-fluoro-5-[(3S)-2-[4-[[6-(2-methoxyethoxy)pyrrolo[3,2-b]pyridin-1-yl]methyl]cyclohexanecarbonyl]isoxazolidin-3-yl]benzonitrile]	8.05	8.10
Cn1cc(C[C@H]2CC[C@H](C(=O)N3OCC[C@H]3c3cc(F)cc(C#N)c3)CC2)cn1 [compound 150, trans-3-fluoro-5-[(3S)-2-[4-[(1-methylpyrazol-4-yl)methyl]cyclohexanecarbonyl]isoxazolidin-3-yl]benzonitrile]	7.68	7.60
Cn1cc(C[C@H]2CC[C@H](C(=O)N3OCC[C@H]3c3cnccn3)CC2)cn1 [compound 151, trans-[4-[(1-methylpyrazol-4-yl)methyl]cyclohexyl]-[(3S)-3-pyrazin-2-ylisoxazolidin-2-yl]methanone]	7.34	6.67
N#Cc1cc(F)cc([C@@H]2CCON2C(=O)[C@H]2CC[C@H](Cn3ccc4ncc(OCC5CC5)cc43)CC2)c1 [compound 152, trans-3-[(3S)-2-[4-[[6-(cyclopropylmethoxy)pyrrolo[3,2-b]pyridin-1-yl]methyl]cyclohexanecarbonyl]isoxazolidin-3-yl]-5-fluoro-benzonitrile]	8.15	8.52
N#Cc1cc(F)cc([C@@H]2CCON2C(=O)[C@H]2CC[C@H](Cn3ccc4ncc(OCCO)cc43)CC2)c1 [compound 153, trans-3-fluoro-5-[(3S)-2-[4-[[6-(2-hydroxyethoxy)pyrrolo[3,2-b]pyridin-1-yl]methyl]cyclohexanecarbonyl]isoxazolidin-3-yl]benzonitrile]	8.22	8.52
O=C1NCc2ccc(C[C@H]3CC[C@H](C(=O)N4OCC[C@H]4c4ccc(F)cc4)CC3)cc21 [compound 154, trans-6-[[4-[(3S)-3-(4-fluorophenyl)isoxazolidine-2-carbonyl]cyclohexyl]methyl]isoindolin-1-one]	7.64	7.48
O=C1NCc2ccc(C[C@H]3CC[C@H](C(=O)N4OCC[C@H]4c4cncc(F)c4)CC3)cc21 [compound 155, trans-6-[[4-[(3S)-3-(5-fluoro-3-pyridyl)isoxazolidine-2-carbonyl]cyclohexyl]methyl]isoindolin-1-one]	7.82	7.72
O=C1NCc2ccc(C[C@H]3CC[C@H](C(=O)N4OCC[C@H]4c4cc(F)cc(F)c4)CC3)cc21 [compound 156, trans-6-[[4-[(3S)-3-(3,5-difluorophenyl)isoxazolidine-2-carbonyl]cyclohexyl]methyl]isoindolin-1-one]	7.80	8.22
Cc1ccc([C@@H]2CCON2C(=O)[C@H]2CC[C@H](Cc3ccc4c(c3)C(=O)NC4)CC2)cn1 [compound 157, trans-6-[[4-[(3S)-3-(6-methyl-3-pyridyl)isoxazolidine-2-carbonyl]cyclohexyl]methyl]isoindolin-1-one]	7.48	6.40
Cc1ccc(C[C@H]2CC[C@H](C(=O)N3OCC[C@H]3c3cncc(C#N)c3)CC2)cc1C(N)=O [compound 158, trans-5-[[4-[(3S)-3-(5-cyano-3-pyridyl)isoxazolidine-2-carbonyl]cyclohexyl]methyl]-2-methyl-benzamide]	8.05	7.48
Cc1nc([C@@H]2CCON2C(=O)[C@H]2CC[C@H](Cc3ccc(C)c(C(N)=O)c3)CC2)cs1 [compound 159, trans-2-methyl-5-[[4-[(3S)-3-(2-methylthiazol-4-yl)isoxazolidine-2-carbonyl]cyclohexyl]methyl]benzamide]	8.15	7.32
CNC(=O)c1cc(F)cc(C[C@H]2CC[C@H](C(=O)N3OCC[C@H]3c3cncc(F)c3)CC2)c1 [compound 160, trans-3-fluoro-5-[[4-[(3S)-3-(5-fluoro-3-pyridyl)isoxazolidine-2-carbonyl]cyclohexyl]methyl]-N-methyl-benzamide]	8.22	7.96
CNC(=O)c1cc(F)cc(C[C@H]2CC[C@H](C(=O)N3OCC[C@H]3c3cc(F)cc(F)c3)CC2)c1 [compound 161, trans-3-[[4-[(3S)-3-(3,5-difluorophenyl)isoxazolidine-2-carbonyl]cyclohexyl]methyl]-5-fluoro-N-methyl-benzamide]	8.40	9.00
CNC(=O)c1cc(F)cc(C[C@H]2CC[C@H](C(=O)N3OCC[C@H]3c3cnccn3)CC2)c1 [compound 162, trans-3-fluoro-N-methyl-5-[[4-[(3S)-3-pyrazin-2-ylisoxazolidine-2-carbonyl]cyclohexyl]methyl]benzamide]	8.40	7.82
CNC(=O)c1cc(F)cc(C[C@H]2CC[C@H](C(=O)N3OCC[C@H]3c3cncc(C#N)c3)CC2)c1 [compound 163, trans-3-[[4-[(3S)-3-(5-cyano-3-pyridyl)isoxazolidine-2-carbonyl]cyclohexyl]methyl]-5-fluoro-N-methyl-benzamide]	8.30	8.00
CNC(=O)c1cc(F)cc(C[C@H]2CC[C@H](C(=O)N3OCC[C@H]3c3cc(F)cc(C#N)c3)CC2)c1 [compound 164, trans-3-[[4-[(3S)-3-(3-cyano-5-fluoro-phenyl)isoxazolidine-2-carbonyl]cyclohexyl]methyl]-5-fluoro-N-methyl-benzamide]	8.30	8.15
CNC(=O)c1cc(F)cc(C[C@H]2CC[C@H](C(=O)N3OCC[C@H]3c3ccc(F)cc3)CC2)c1 [compound 165, trans-3-fluoro-5-[[4-[(3S)-3-(4-fluorophenyl)isoxazolidine-2-carbonyl]cyclohexyl]methyl]-N-methyl-benzamide]	8.30	8.15
COc1cncc([C@@H]2CCON2C(=O)[C@H]2CC[C@H](Cc3ccc(C)c(C(N)=O)c3)CC2)n1 [compound 166, trans-5-[[4-[(3S)-3-(6-methoxypyrazin-2-yl)isoxazolidine-2-carbonyl]cyclohexyl]methyl]-2-methyl-benzamide]	8.10	7.30
Cn1cncc1C[C@H]1CC[C@H](C(=O)N2OCC[C@H]2c2cc(F)cc(C#N)c2)CC1 [compound 167, trans-3-fluoro-5-[(3S)-2-[4-[(3-methylimidazol-4-yl)methyl]cyclohexanecarbonyl]isoxazolidin-3-yl]benzonitrile]	6.98	7.00
Cn1cncc1C[C@H]1CC[C@H](C(=O)N2OCC[C@H]2c2cncc(C#N)c2)CC1 [compound 168, trans-5-[(3S)-2-[4-[(3-methylimidazol-4-yl)methyl]cyclohexanecarbonyl]isoxazolidin-3-yl]pyridine-3-carbonitrile]	6.08	6.19
